Inhibition data for four compounds are collected here from patent US10821106B2, “Composition and methods of use of novel phenylalanine small organic compounds to directly modulate PCSK9 protein activity” (SRX Cardio, LLC, priority 2015, dated 2020).

SMILES strings stand for the structures. Where only a bound is given, the exact number is not on record here.

Assay [1] has as its target T1, recombinant PCSK9 (Homo sapiens, UniProt Q8NBP7). In words: DiI-LDL Uptake Assay in HepG2 cells. Conditions: 2.5 ug/mL PCSK9, DiI-LDL 5 ug/ml, read-out: Uptake Assay: % Inhibition of 2.5 ug/mL recombinant PCSK9 @ X compound dose; for inhibition at 1.25 µM: 1.25 uM compound. It is filed as cell-based. Here is the method: The cells were incubated in a 96-well plate for a total of 16 h in the absence or presence of recombinant PCSK9 (final concentration 2.5 ug/ml) protein alone or recombinant PCSK9 protein pre-mixed with indicated concentration of experimental compounds (Cmpd #). After 16 h, DiI-LDL (final concentration 5 ug/ml) was added to the incubation mixtures. After 4 h, cells are stained with Hoechst 33342 for 30 minutes, then rinsed with phosphate buffered saline, and then a final volume of 100 ul phosphate buffered saline was added to each well. The fluorescence was measured (DiI: excitation at 550 nm and emission at 590 nm; Hoechst: excitation at 355 nm, emission at 460 nm). The percent recombinant PCSK9 inhibition was calculated as [‘Compound Dose DiI Fluorescence’-‘2.5 ug/ml PCSK9-treated DiI Fluorescence’]/[‘No PCSK9 DiI Fluorescence’-‘2.5 ug/ml PCSK9-treated DiI Fluorescence’]×100%.
Cellular DiI-LDL uptake can be measured using protocols adapted from Benjannet et al., “Effects of the prosegment and pH on the activity of PCSK9: evidence for additional processing events” J Biol Chem. 285(52): 40965-40978 (2010) and “Composition and Methods of Use of Small Molecules as Binding Ligands for the Modulation of Proprotein Convertase Subtilisin/Kexin Type 9 (PCSK9) Protein Activity” (WO2016029037), which are incorporated by reference in their entirety.
Cells, such as HepG2, HuH7, FL83B, or a cell line transfected with a short-hairpin PCSK9 knockdown sequence such as HepG2/shPCSK9, HuH7/shPCSK9, or FL83B/shPCSK9 are plated and cultured at 37° C. for 12-24 h. Culture media is removed and replaced with fresh lipoprotein-depleted culture media supplemented with 5 ug/mL of DiI-LDL (Kalen Biomedical) or lipoprotein-depleted culture media supplemented with 5 ug/mL of DiI-LDL plus a predetermined concentration of recombinant PCSK9, for example a 10 nM final concentration of PCSK9. Lipoprotein-depleted culture media can be composed of DMEM (Invitrogen) with 10% lipoprotein-depleted fetal bovine serum (Kalen Biomedical) and supplemented with penicillin-streptomycin (Life Technologies). Cells are dosed with small molecule test compounds at doses ranging from 0 nM to 100 uM.
Following an incubation period of specified length, such as 6 hours, Hoechst 33342 (AnaSpec) stain is added to the cell media per manufacturer's instructions and incubated for a specified length (e.g., 30 minutes). The lipoprotein-depleted media is removed and cells rinsed three times with phosphate buffered saline. A final volume of phosphate buffered saline is added back to the wells. The DiI fluorescence is measured with a plate reader using an exciting wavelength of 550 nm and the resulting emission at 590 nm is measured. The Hoechst stain fluorescence is measured with a plate reader using an exciting wavelength of 355 nm and the resulting emission at 460 nm is measured.
Cells are analyzed by for both Hoechst stain (DNA content) and DiI-LDL fluorescence. Cells incubated with small molecule compounds that are inhibitors of PCSK9 will be expected to show increased amounts of DiI-LDL fluorescence, relative to control (no compound) specimens, and cells incubated with small molecule compounds that are activators of PCSK9 will be expected to show decreased amounts of DiI-LDL fluorescence relative to control (no compound) specimens.

The target of assay [2] is T1, recombinant PCSK9. In words: LDLR Flow / FACS Assay in HuH7 cells. It counts as cell-based. Conditions: 5.0 ug/mL PCSK9, 6 h, read-out: LDLR Flow Assay: % Inhibition of 5.0 ug/mL recombinant PCSK9 @ X compound dose; for inhibition at 1.25 µM: Huh-7, 1.25 uM compound. How it is done:
The cells were incubated in 24-well plates for a total of 6 h in the absence or presence of recombinant PCSK9 protein (final concentration of 5.0 ug/ml), or in the presence of PCSK9 protein mixed with indicated concentration of experimental compound (Cmpd #). After 6 hours, the cells were released from the plate, stained with anti-LDLR antibody, then rinsed, counterstained with DAPI, and then measured by fluorescence activated cell sorting (FACS). The percent recombinant PCSK9 inhibition was calculated as [‘Compound Dose LDLR Fluorescence’-‘5.0 ug/ml PCSK9-treated LDLR Fluorescence’]/[‘No PCSK9 Basal LDLR Fluorescence’-‘5.0 ug/ml PCSK9-treated LDLR Fluorescence’]×100%.
LDLR levels can be measured using flow cytometry or fluorescence activated cell sorting (FACS) using protocols adapted from Benjannet et al., “Effects of the prosegment and pH on the activity of PCSK9: evidence for additional processing events” J Biol Chem. 285(52): 40965-40978 (2010) and “Composition and Methods of Use of Small Molecules as Binding Ligands for the Modulation of Proprotein Convertase Subtilisin/Kexin Type 9 (PCSK9) Protein Activity” (WO2016029037), which are incorporated by reference in their entirety.
Cells, such as HepG2, HuH7, FL83B, or a cell line transfected with a short-hairpin PCSK9 knockdown sequence such as HepG2/shPCSK9, HuH7/shPCSK9, or FL83B/shPCSK9 are plated and cultured at 37° C. for 12-24 h. Culture media is removed and replaced with fresh culture media or culture media plus a predetermined amount of recombinant PCSK9, for example a 10 nM final concentration of PCSK9. Cell culture media can be composed of DMEM (Invitrogen) with 10% fetal bovine serum (Life Technologies) supplemented with penicillin-streptomycin (Life Technologies). Cells are dosed with small molecule test compounds at doses ranging from 0 nM to 100 uM […]
Cells are analyzed for both cell viability marker (dead cells) and LDLR in live cells using a flow cytometer per the manufacturer's operating manual. […]

T1 sequence (Q8NBP7 153-692): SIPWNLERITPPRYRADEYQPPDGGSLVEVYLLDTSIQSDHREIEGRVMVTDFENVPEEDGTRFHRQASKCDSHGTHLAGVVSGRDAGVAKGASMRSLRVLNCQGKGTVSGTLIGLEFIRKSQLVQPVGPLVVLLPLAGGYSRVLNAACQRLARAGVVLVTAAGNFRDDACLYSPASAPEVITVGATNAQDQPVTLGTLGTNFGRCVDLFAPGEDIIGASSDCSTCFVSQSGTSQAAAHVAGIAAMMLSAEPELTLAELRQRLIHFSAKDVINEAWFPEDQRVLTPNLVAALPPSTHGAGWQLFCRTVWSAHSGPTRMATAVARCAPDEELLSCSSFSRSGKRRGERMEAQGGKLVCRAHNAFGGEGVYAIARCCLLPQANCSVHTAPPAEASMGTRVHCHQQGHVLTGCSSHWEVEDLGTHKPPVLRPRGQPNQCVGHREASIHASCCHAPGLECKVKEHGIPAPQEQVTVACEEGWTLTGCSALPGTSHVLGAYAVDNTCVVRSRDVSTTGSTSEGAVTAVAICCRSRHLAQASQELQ

As for `CC(C)NC(=O)[C@@H](N)Cc1ccc(-c2ccccc2)cc1` [Compound 1, (S)-3-([1,1′-biphenyl]-4-yl)-2-amino-N-isopropylpropanamide], the inhibition at 1.25 µM at recombinant PCSK9 [1] and at recombinant PCSK9 [2] was ~15% each time. The inhibition at 10 µM on recombinant PCSK9 [1] (10 uM compound) was > 100%; at recombinant PCSK9 [2] (Huh-7, 10 uM compound) it was ~55%.
As for `CC(C)NC(=O)[C@@H](N)Cc1ccc(-c2cc[nH]c(=O)c2)cc1` [Compound 2, (S)-2-amino-N-isopropyl-3-(4-(2-oxo-1,2-dihydropyridin-4-yl)phenyl)propanamide], the inhibition at 1.25 µM on recombinant PCSK9 [1] was ~40%.
Regarding `CC(C)NC(=O)[C@@H](N)Cc1ccc(-c2cccc(O)c2)cc1` [Compound 3, (S)-2-amino-3-(3′-hydroxy-[1,1′-biphenyl]-4-yl)-N-isopropylpropanamide], the inhibition at 1.25 µM at recombinant PCSK9 [1] is ~44%.
As to `Cc1cc(C[C@H](N)C(=O)NC(C)C)ccc1-c1cccc(O)c1` [Compound 4, (S)-2-amino-3-(3′-hydroxy-2-methyl-[1,1′-biphenyl]-4-yl)-N-isopropylpropanamide], the inhibition at 1.25 µM on recombinant PCSK9 [1] is ~28%; at recombinant PCSK9 [2], ~10%.
